Data set [1] has as its system Salmonella typhimurium TA98. The experiment in a line: Reverse mutation test (Ames test), TA98. The class given is cell-based. The procedure:
(§1) In order to examine mutagenicity of Compound I-1, I-2, I-4 and I-5, reverse mutation test using Salmonella typhimurium TA98 and TA100 (hereinafter referred to as Ames test) was conducted.
(§2) The test was conducted without addition of S9mix and with addition of S9mix. Dimethylsulfoxide was used as a negative control. A positive control was 2-(2-furyl)-3-(5-nitro-2-furyl)acrylamide in case S9mix was not added, and 2-aminoanthracene in case S9mix was added.
(§3) The amount of each sample to be added to the test plate was 7 dosages (geometric ratio 4) with the maximum dose being 1250 μg/plate for Compounds I-1 and I-5, and 7 dosages (geometric ratio 3) with the maximum dose being 5000 μg/plate for Compounds I-2 and I-4. After a sample to be examined and a strain (TA98 or TA100), or a sample to be examined, S9mix and the strain were mixed together, the mixture was multilayered using soft agar on a medium of a test plate, and then incubated at 37° C. for 48 hours.
In general terms: In the Ames test, an excess of revertant colonies over the control signals mutagenicity.

Data set [2] concerns Salmonella typhimurium TA100. The experiment in a line: Reverse mutation test (Ames test), TA100. Type of data set: cell-based. The procedure:
as §1, §2, §3

Data set [3] concerns Salmonella typhimurium TA98 and TA100. The experiment in a line: Reverse mutation test (Ames test), overall judgment. Type of data set: cell-based. The note with it: TA98 and TA100, with and without S9mix. The procedure:
as §1, §2, §3

Data set [4] relates to Chinese Hamster fibroblast cell line (CHL/IU cell). As to the kind of experiment: Chromosome aberration test. Type of data set: cell-based. Conditions: short-term treatment with or without S9 and 24-hour continuous treatment; 0.15-1.2 mg/mL. The procedure: In order to examine whether Compound I-4 can induce chromosome aberration, the chromosome aberration test was conducted using Chinese Hamster fibroblast cell line (CHL/IU cell) in a culture system with or without addition of S9 by short-term treatment process and in a 24-hour culture system by continuous treatment process. The addition amount of a sample to be tested was set to 1.2, 0.6, 0.3, and 0.15 mg/mL for all the respective culture systems.

Data set [5] has as its system bone marrow cells of Crlj:CD1(ICR) male mouse. As to the kind of experiment: Micronucleus test. The class given is in vivo. Conditions: for appearance frequency of MNPCE as compared to the negative control group: 24 and 48 hours after single administration. The procedure: In order to study mutagenicity (in vivo) of Compound I-4, induction of micronucleated polychromatic erythrocyte (hereinafter referred to as MNPCE) was examined using bone marrow cells of Crlj:CD1(ICR) male mouse.
0 mg/kg (negative control group), 250, 500, 1000 and 2000 mg/kg (test sample group) were set as doses for the test. Mice were sacrificed 24 and 48 hours after single oral administration, and bone marrow smear was prepared and observed. Further, a single dose of MMC at 2 mg/kg was abdominally administrated in positive control group, mice were sacrificed 24 hours after the administration, and then bone marrow smear was prepared and observed.
As statistical analysis, significance tests were conducted by Wilcoxon rank sum test for the appearance frequency of MNPCE and the ratio of polychromatic erythrocyte (hereinafter referred to as PCE) to the total red blood cell (hereinafter referred to as RBC) in each administration group concerning the test sample and positive control groups relative to the negative control group and concerning these groups relative to each other where the significance level was set to less than 5% and less than 1%, respectively.

The nature of data set [6]: Transferability into brain and clearance, Examples I-20 to I-21. The class given is in vivo, male Wistar rats. The note with it: rats, intravenous injection, Table 1-7. The source says:
Three animals were used for Experiment I-20 and Comparative Experiment I-9, and two animals were used for Experiment I-21 at the respective time points.

Data set [7] can be described thus: Partition coefficient based on the octanol extraction method, Examples II-8 to II-9. Type of data set: physicochemical. Conditions: octanol / 10 mmol/L phosphate buffer (pH 7.4); Table 2-4.
Method: To 2 mL of octanol, 10 μL each of the prepared sample solutions was added, 2 mL of 10 mmol/L phosphate buffer (pH 7.4) was added, followed by stirring for 30 seconds. After the mixture was centrifuged with a low-speed centrifuge (2000 rpm×60 min.), the octanol layer and the water layer were sampled each in an amount of 1 mL, and subjected to measurement of radioactivity count with an autowell gamma system (Type: ARC-301B, manufactured by Aloka). Using the obtained radioactivity count, log Poctanol was calculated in accordance with the equation (2-2).
Data set [8] in a line: Transferability into brain and clearance, Examples II-10 to II-11. The class given is in vivo, male Wistar rats. Conditions: rats, intravenous injection, Table 2-5.
Method: 0.05 mL each of the prepared sample solutions was injected under thiopental anesthesia into the tail vein of the rats. The rats were sacrificed by bleeding from abdominal artery, and brains were removed and subjected to measurement of mass of brains and further subjected to measurement of radioactivity (hereinafter referred to as A in this Example) with a single channel analyzer (detector type SP-20 manufactured by OHYO KOKEN KOGYO Co., Ltd.) 2, 5, 30, and 60 minutes after the injection. Further, the radioactivity level of the rest of the whole body was measured in the same manner as above (hereinafter referred to as B in this Example). Using these measurement results, radioactive distribution per unit weight of brain (% ID/g) at the respective time points were calculated in accordance with the following formula (2-3).
Three animals were used for the experiment at the respective time points.
Data set [9] has as its target T1, intracerebral amyloid (aggregated Aβ1-42 injected into amygdaloid nucleus) (Homo sapiens, UniProt P05067).
T1 construct: Aβ1-42 (Wako) was dissolved in phosphate buffer (pH 7.4); purchased Wako
As to the kind of experiment: Confirmation of imaging of amyloid in brain (ex vivo autoradiogram), Examples II-12 and II-13. More on the design: species or system male Wistar rat. The note with it: brain slice 60 minutes after tail vein injection. The procedure:
(§4) The same procedures as in Example II-12 were performed except using a 10 mg/mL solution of Compound II-2 in ascorbic acid (the radioactive concentration of the sample solution was 25 MBq/mL).

Data set [10] has as its system intracerebral amyloid (aggregated Aβ1-42 injected into amygdaloid nucleus). Described as above. Details: species or system male Wistar rat. The note with it: for radioactive accumulation at sites other than amyloid injected sites: autoradiogram, 60 minutes after tail vein injection; for accumulation of radioactivity in amygdaloid nucleus on the side to which the physiological saline solution was injected: brain slice 60 minutes after tail vein injection. The procedure: as §4

Data set [11] concerns the target T2, amyloid (aggregated Aβ1-42) (Homo sapiens, UniProt P05067).
T2 construct: Aβ1-42 (Wako) was dissolved in phosphate buffer (pH 7.4); purchased Wako
The experiment in a line: Measurement of affinity with amyloid (inhibition of [125I]3′-I-BTA-0 binding), Example II-7. Conditions: [125I]3′-I-BTA-0 400 pmol/L, amyloid 1 μmol/L, 1% bovine serum albumin-containing phosphate buffer (pH 7.4). The source says:
Then, each sample solution was filtered through a glass fiber filter (trade name: Mulutiscreen™-FC, manufactured by Millipore), to separate the [^125I]3′-I-BTA-0 attached to amyloid from the free [^125I]3′-I-BTA-0.
The measured radioactivity level was defined as the background radioactivity level, and used in the calculation of the inhibition ratio (hereinafter referred to as BG).
A graph in which values converted by probit transformation from the obtained inhibition ratios were plotted relative to logarithms of concentrations of compounds for evaluation was prepared to obtain an approximate straight line by the least square method.

For data set [12] the following is noted: International Publication WO03/106439 pamphlet; cited from earlier work.
For data set [13] the following is noted: normal mice, [125I]-labeled, cited from earlier work; for transfer into brain: 2 minutes after administration.

The values below come from patent publication US8506930B2, “Compounds having affinity for amyloid” (Nihon Medi-Physics Co., Ltd., priority 2006, dated 2013).

Bounds are passed on as bounds.

T2 sequence (P05067 672-713 limits assumed): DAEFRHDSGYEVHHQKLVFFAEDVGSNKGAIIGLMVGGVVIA
T1 sequence (P05067 672-713): as the sequence (P05067 672-713 limits assumed) above

In the case of `FCCCOc1ccc(-c2cn3cc(Br)ccc3n2)cc1` [Compound I-1, 6-bromo-2-[4′-(3″-fluoropropoxy)phenyl]imidazo[1,2-a]pyridine], the “Mutagenicity, TA98” value in [1] (With addition of S9mix) and in data set [1] (Without addition of S9mix) was “Negative” throughout. Further, the “Mutagenicity, TA100” value in [2] (With addition of S9mix) and in data set [2] (Without addition of S9mix) was “Negative” throughout. Besides, the “judgment in the Ames test” value in data set [3] is listed as “negative”.

Take `FCCCOc1ccc(-c2cn3cc(I)ccc3n2)cc1` [Compound I-2, 2-[4′-(3″-fluoropropoxy)phenyl]-6-iodoimidazo[1,2-a]pyridine]: the “Mutagenicity, TA98” value in data set [1] (With addition of S9mix) and in [1] (Without addition of S9mix) was “Negative” in each case. The “Mutagenicity, TA100” value in data set [2] (With addition of S9mix) and in [2] (Without addition of S9mix) was “Negative” throughout. Also, the “judgment in the Ames test” value in data set [3] is on record as “negative”.

As for `FCCOc1ccc(-c2cn3cc(I)ccc3n2)cc1` [Compound I-4, 2-[4′-(2″-fluoroethoxy)phenyl]-6-iodoimidazo[1,2-a]pyridine], the “Mutagenicity, TA98” value in [1] (With addition of S9mix) and in data set [1] (Without addition of S9mix) was “Negative” in each case. Also, the “Mutagenicity, TA100” value in data set [2] (With addition of S9mix) and in data set [2] (Without addition of S9mix) was “Negative” throughout. In [3], the “judgment in the Ames test” value is recorded as “negative”. Also, the “appearance frequency of cells having structural aberration or numerical aberration (diploid)” value in data set [4] was “comparable to that of the negative control group”. The “capability of inducing chromosome aberration (judgment)” value in data set [4] is on record as “negative”. Besides, the “appearance frequency of MNPCE as compared to the negative control group” value in data set [5] (mouse bone marrow) is reported as “no statistically significant difference”. For the same compound, the “ratio of PCE to RBC as compared to the negative control group” value in data set [5] (mouse bone marrow, 24 and 48 hours after single oral administration, 250-2000 mg/kg) is given as “no statistically significant difference”. Further, the “mutagenicity (in vivo) judgment” value in data set [5] (single oral administration, 250-2000 mg/kg) was “negative”.

As to `FCCCOc1ccc(-c2cn3cc(I)cnc3n2)cc1` [Compound I-5, 2-[4′-(3″-fluoropropoxy)phenyl]-6-iodoimidazo[1,2-a]pyrimidine], the “Mutagenicity, TA98” value in [1] (With addition of S9mix) and in data set [1] (Without addition of S9mix) was “Negative” in each case. In addition, the “Mutagenicity, TA100” value in [2] (With addition of S9mix) and in [2] (Without addition of S9mix) was “Negative” throughout. Further, the “judgment in the Ames test” value in data set [3] is recorded as “negative”.

`[18F]CCCOc1ccc(-c2cn3cc(Br)ccc3n2)cc1` [Compound I-8, 6-bromo-2-[4′-(3″-[^18F]fluoropropoxy)phenyl]imidazo[1,2-a]pyridine]: in [6] (2 min.), the “Radioactive distribution in brain per unit weight, After 2 min.” value came out at 1.20 % ID/g. In addition, in data set [6] (5 min.), the “Radioactive distribution in brain per unit weight, After 5 min.” value came to 0.75 % ID/g. The “Radioactive distribution in brain per unit weight, After 30 min.” value in data set [6] (30 min.) is 0.18 % ID/g. In [6] (60 min.), the “Radioactive distribution in brain per unit weight, After 60 min.” value is listed as 0.12 % ID/g.

For `OCCOc1ccc(-c2cn3cc([123I])ccc3n2)cc1` [Compound II-1, 2-[4′-(2″-hydroxyethoxy)phenyl]-6-[^123I]iodoimidazo[1,2-a]pyridine], the logPoctanol value in [7] came to 1.8. For the same compound, in [8], the “Radioactive distribution in brain per unit weight, After 2 min.” value turned out to be 0.90 % ID/g; the “Radioactive distribution in brain per unit weight, After 5 min.” value was 0.52 % ID/g; the “Radioactive distribution in brain per unit weight, After 30 min.” value was 0.06 % ID/g; the “Radioactive distribution in brain per unit weight, After 60 min.” value was found to be 0.01 % ID/g. Also, in [9], the “accumulation of radioactivity in amygdaloid nucleus on the side to which the amyloid suspension was injected” value was “marked accumulation of radioactivity”. Moreover, in [10], the “radioactive accumulation at sites other than amyloid injected sites” value is listed as “little radioactive accumulation at the sites other than amyloid injected sites” and the “accumulation of radioactivity in amygdaloid nucleus on the side to which the physiological saline solution was injected” value is recorded as “no significant accumulation of radioactivity”.

Compound `CCOc1ccc(-c2cn3cc([123I])ccc3n2)cc1` [Compound II-2, 2-(4′-ethoxyphenyl)-6-[^123I]iodoimidazo[1,2-a]pyridine] came in with a logPoctanol value in [7] of 2.1. In [8], the “Radioactive distribution in brain per unit weight, After 2 min.” value was found to be 0.89 % ID/g; the “Radioactive distribution in brain per unit weight, After 5 min.” value came out at 0.66 % ID/g; the “Radioactive distribution in brain per unit weight, After 30 min.” value was 0.13 % ID/g; the “Radioactive distribution in brain per unit weight, After 60 min.” value turned out to be 0.04 % ID/g. For the same compound, the “accumulation of radioactivity in amygdaloid nucleus on the side to which the amyloid suspension was injected” value in data set [9] is “marked accumulation of radioactivity”. In data set [10], the “radioactive accumulation at sites other than amyloid injected sites” value is on record as “some radioactive accumulation in sites other than amyloid injected sites, but the accumulation was highly suppressed as compared to ^123I-IMPY” and the “accumulation of radioactivity in amygdaloid nucleus on the side to which the physiological saline solution was injected” value was “no significant accumulation of radioactivity”.

With `OCCOc1ccc(-c2cn3cc(I)ccc3n2)cc1` [Compound II-3, 2-[4′-(2″-hydroxyethoxy)phenyl]-6-iodoimidazo[1,2-a]pyridine], the 50% inhibitory concentration (IC50) in data set [11] is less than 0.1 µM.

On to `Nc1c(/N=N/c2ccc(-c3ccc(/N=N/c4cc(S(=O)(=O)O)c5ccccc5c4N)cc3)cc2)cc(S(=O)(=O)O)c2ccccc12` [Congo Red, reference compound], for which, in [11], the IC50 was greater than 1 µM.

As to `CC(=C(C#N)C#N)c1ccc2cc(N(C)CCF)ccc2c1` [FDDNP, 2-(1-{6-[(2-fluoroethyl)(methyl)amino]-2-naphthyl}ethylidene)malononitrile], the “reverse mutation test result” value in data set [12] is “positive”.

On to `CN(C)c1ccc(-c2nc3ccc(I)cc3o2)cc1` [IBOX, 6-iodo-2-[4′-(N,N-dimethylamino)phenyl]benzoxazole], for which, in data set [13], the transfer into brain result was “transferred into brain” and the “clearance from normal tissues” value was “insufficient in clearance from normal tissues”.

Take `CO[C@@]12[C@H](COC(N)=O)C3=C(C(=O)C(C)=C(N)C3=O)N1C[C@@H]1N[C@@H]12` [MMC, reference compound]: the “appearance frequency of MNPCE as compared to the negative control group” value in data set [5] (mouse bone marrow) is “significant increase”.

Consider `CN(C)c1ccc(-c2nc3ccc(I)cc3s2)cc1` [TZDM, 6-iodo-2-[4′-(N,N-dimethylamino)phenyl]benzothiazole], for which, in data set [13], the transfer into brain entry is “transferred into brain” and the “clearance from normal tissues” value is on record as “insufficient in clearance from normal tissues”.

Turning to `CN(C)c1ccc(/C=C/c2ccc(I)cc2)cc1` [m-I-SB, (E)-4-dimethylamino-4′-iodostilbene], in data set [13], the transfer into brain result is reported as “transferred into brain” and the “clearance from normal tissues” value was “insufficient in clearance from normal tissues”.

For orientation: IC50 means the concentration that gives 50% inhibition. High values mean weaker potency, low ones greater potency.
